Experimental data published in PubChem BioAssay AID248 (DTP/NCI, 2004).
“And” between values parts separate entries of the source, which are not always exact repeats. Equal values may be shown once. Inconclusive results and toxic doses are left out. No stated cut-off is given here; in the data, active means T/C of 150% or more; inactive means T/C below 125%.

Test system: L1210 leukemia ip in BDF1 mice, survival T/C
Assay: NCI In Vivo Anticancer Drug Screen. Data for tumor model L1210 Leukemia (intraperitoneal) in B6D2F1 (BDF1) mice
Settings: endpoint: mean survival time, higher = longer survival
Method in brief: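 Survival endpoint. Drug-treated group vs vehicle group, expressed as T divided by C. Tumor passaged by transplantation.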

[1] = dose: 100.0 mg/kg/injection, schedule: Q01DX009 (ip), vehicle: saline
[2] = dose: 200.0 mg/kg/injection, schedule: Q01DX009 (ip), vehicle: saline
[3] = dose: 400.0 mg/kg/injection, schedule: Q01DX009 (ip), vehicle: saline
[4] = dose: 100.0 mg/kg/injection, schedule: Q04DX002 (ip), vehicle: Klucel (hydroxypropylcellulose) (HPC)
[5] = dose: 200.0 mg/kg/injection, schedule: Q04DX002 (ip), vehicle: Klucel (hydroxypropylcellulose) (HPC)
[6] = dose: 100.0 mg/kg/injection, schedule: Q01DX001 (ip), vehicle: saline
[7] = dose: 100.0 mg/kg/injection, schedule: Q04DX003 (ip), vehicle: saline with Tween-80
[8] = dose: 200.0 mg/kg/injection, schedule: Q01DX001 (ip), vehicle: saline
[9] = dose: 200.0 mg/kg/injection, schedule: Q04DX003 (ip), vehicle: saline with Tween-80
[10] = dose: 400.0 mg/kg/injection, schedule: Q04DX003 (ip), vehicle: saline with Tween-80
[11] = dose: 100.0 mg/kg/injection, schedule: Q04DX003 (ip), vehicle: saline
[12] = dose: 200.0 mg/kg/injection, schedule: Q04DX003 (ip), vehicle: saline
[13] = dose: 100.0 mg/kg/injection, schedule: Q01DX009 (ip), vehicle: Klucel (hydroxypropylcellulose) (HPC)
[14] = dose: 100.0 mg/kg/injection, schedule: Q04DX003 (ip), vehicle: Klucel (hydroxypropylcellulose) (HPC)
[15] = dose: 200.0 mg/kg/injection, schedule: Q01DX009 (ip), vehicle: Klucel (hydroxypropylcellulose) (HPC)
[16] = dose: 200.0 mg/kg/injection, schedule: Q04DX003 (ip), vehicle: Klucel (hydroxypropylcellulose) (HPC)
[17] = dose: 400.0 mg/kg/injection, schedule: Q04DX003 (ip), vehicle: Klucel (hydroxypropylcellulose) (HPC)

Measured: T/C

NC(N)=S
inactive: [1] 103 % of control | dose: 100.0 mg/kg/injection, schedule: Q01DX015 (oral), vehicle: saline 97 % of control and 121 % of control | dose: 100.0 mg/kg/injection, schedule: Q04DX002 (ip), vehicle: saline 100 % of control | [2] 101 % of control | dose: 200.0 mg/kg/injection, schedule: Q01DX015 (oral), vehicle: saline 100 % of control and 121 % of control | dose: 200.0 mg/kg/injection, schedule: Q04DX002 (ip), vehicle: saline 113 % of control | [3] 103 % of control | dose: 400.0 mg/kg/injection, schedule: Q01DX015 (oral), vehicle: saline 122 % of control | dose: 400.0 mg/kg/injection, schedule: Q04DX002 (ip), vehicle: saline 95 % of control

[NH-]S(=O)(=O)O.[NH-]S(=O)(=O)O.[NH2-].[NH2-].[Pt+4]
inactive: dose: 10.0 mg/kg/injection, schedule: Q01DX009 (ip), vehicle: saline with Tween-80 100 % of control | dose: 20.0 mg/kg/injection, schedule: Q01DX009 (ip), vehicle: saline with Tween-80 90 % of control | dose: 40.0 mg/kg/injection, schedule: Q01DX009 (ip), vehicle: saline with Tween-80 100 % of control

NCCCCCCN (tested in a mixture with another compound)
inactive: dose: 3.0 mg/kg/injection, schedule: Q01DX009 (ip), vehicle: acid diluted with saline 101 % of control | dose: 3.0 mg/kg/injection, schedule: Q04DX003 (ip), vehicle: acid diluted with saline 104 % of control | dose: 6.0 mg/kg/injection, schedule: Q01DX009 (ip), vehicle: acid diluted with saline 108 % of control | dose: 6.0 mg/kg/injection, schedule: Q04DX003 (ip), vehicle: acid diluted with saline 89 % of control | dose: 12.0 mg/kg/injection, schedule: Q04DX003 (ip), vehicle: acid diluted with saline 106 % of control

Nc1ccccc1CSc1nc2nc[nH]c2c(=O)[nH]1
inactive: dose: 5.0 mg/kg/injection, schedule: Q01DX009 (ip), vehicle: Klucel (hydroxypropylcellulose) (HPC) 99 % of control | dose: 10.0 mg/kg/injection, schedule: Q01DX009 (ip), vehicle: Klucel (hydroxypropylcellulose) (HPC) 97 % of control | dose: 20.0 mg/kg/injection, schedule: Q01DX009 (ip), vehicle: Klucel (hydroxypropylcellulose) (HPC) 103 % of control

O=C(/C=C\c1ccccc1)Nc1c(Cl)cc(Cl)cc1Cl
inactive: [4] 91 % of control | [5] 107 % of control | dose: 400.0 mg/kg/injection, schedule: Q04DX002 (ip), vehicle: Klucel (hydroxypropylcellulose) (HPC) 95 % of control

CCCCNC(C)(C)COC(=O)/C=C/c1ccc(OCCCC)cc1
inactive: dose: 50.0 mg/kg/injection, schedule: Q04DX003 (ip), vehicle: saline with Tween-80 92 % of control | [6] 104 % of control | dose: 100.0 mg/kg/injection, schedule: Q01DX015 (ip), vehicle: saline 86 % of control | [7] 94 % of control | [8] 102 % of control | dose: 200.0 mg/kg/injection, schedule: Q01DX015 (ip), vehicle: saline 89 % of control | [9] 105 % of control

CCn1c(C)[n+](CCCOS(=O)(=O)[O-])c2ccccc21
inactive: [11] 97 % of control | [12] 106 % of control

O=C(/C(=C/c1cccc(Cl)c1)c1ccccc1)c1ccc(O)cc1
inactive: dose: 100.0 mg/kg/injection, schedule: Q01DX001 (ip), vehicle: carboxymethylcellulose (CMC) 101 % of control | dose: 200.0 mg/kg/injection, schedule: Q01DX001 (ip), vehicle: carboxymethylcellulose (CMC) 90 % of control

COc1ccccc1NC(=S)Nc1ccccc1OC
inactive: [13] 102 % of control | dose: 100.0 mg/kg/injection, schedule: Q01DX009 (ip), vehicle: saline sonified 97 % of control | dose: 100.0 mg/kg/injection, schedule: Q01DX009 (ip), vehicle: saline with Tween-80 90 % of control | [14] 93 % of control | dose: 100.0 mg/kg/injection, schedule: Q04DX003 (ip), vehicle: saline sonified 110 % of control | [7] 92 % of control | [15] 94 % of control | dose: 200.0 mg/kg/injection, schedule: Q01DX009 (ip), vehicle: saline sonified 97 % of control | dose: 200.0 mg/kg/injection, schedule: Q01DX009 (ip), vehicle: saline with Tween-80 101 % of control | [16] 98 % of control | dose: 200.0 mg/kg/injection, schedule: Q04DX003 (ip), vehicle: saline sonified 95 % of control | [9] 96 % of control | dose: 400.0 mg/kg/injection, schedule: Q01DX009 (ip), vehicle: saline sonified 86 % of control | dose: 400.0 mg/kg/injection, schedule: Q01DX009 (ip), vehicle: saline with Tween-80 93 % of control | [17] 96 % of control | dose: 400.0 mg/kg/injection, schedule: Q04DX003 (ip), vehicle: saline sonified 116 % of control | [10] 92 % of control

COC(=O)C(N=O)C(=O)OC
inactive: [6] 104 % of control | [8] 109 % of control | dose: 400.0 mg/kg/injection, schedule: Q01DX001 (ip), vehicle: saline 106 % of control

CCOC(CN)OCC
inactive: [1] 114 % of control | [11] 112 % of control | [2] 107 % of control | [12] 102 % of control | [3] 106 % of control | dose: 400.0 mg/kg/injection, schedule: Q04DX003 (ip), vehicle: saline 97 % of control

Nc1nc2nc3c(nc2c(=O)[nH]1)CN(c1ccc(C(=O)O)cc1)C3=O
inactive: dose: 12.5 mg/kg/injection, schedule: Q01DX009 (ip), vehicle: saline with Tween-80 90 % of control | dose: 25.0 mg/kg/injection, schedule: Q01DX009 (ip), vehicle: saline with Tween-80 94 % of control | dose: 50.0 mg/kg/injection, schedule: Q01DX009 (ip), vehicle: saline with Tween-80 87 % of control

O=C(O)C(=O)Cc1nnn(-c2ccccc2)c1-c1ccccc1
inactive: dose: 75.0 mg/kg/injection, schedule: Q01DX001 (ip), vehicle: acetone 95 % of control | dose: 150.0 mg/kg/injection, schedule: Q01DX001 (ip), vehicle: acetone 101 % of control | dose: 300.0 mg/kg/injection, schedule: Q01DX001 (ip), vehicle: acetone 95 % of control

CCCCCCCCCCCCCCCCCCOc1cccc(C(F)(F)F)c1
inactive: dose: 100.0 mg/kg/injection, schedule: Q01DX001 (ip), vehicle: saline with Tween-80 89 % of control | dose: 200.0 mg/kg/injection, schedule: Q01DX001 (ip), vehicle: saline with Tween-80 91 % of control

Cc1ccc(NC(=O)Nc2cccc(Cl)c2)cc1C
inactive: [13] 96 % of control | [14] 90 % of control | [15] 98 % of control | [16] 92 % of control | dose: 400.0 mg/kg/injection, schedule: Q01DX009 (ip), vehicle: Klucel (hydroxypropylcellulose) (HPC) 95 % of control | [17] 92 % of control

O=C(CCC(=O)c1ccccc1)OCc1ccccc1
inactive: [4] 96 % of control | [5] 86 % of control

Cc1c(-c2ccccc2)nn(O)c1-c1ccccc1
inactive: dose: 50.0 mg/kg/injection, schedule: Q01DX009 (ip), vehicle: Klucel (hydroxypropylcellulose) (HPC) 102 % of control | [13] 102 % of control | [15] 94 % of control
